These results are taken from patent US20220202811A1, “TREATMENT FOR RETINOIC ACID RECEPTOR-RELATED ORPHAN RECEPTOR Ɣ (RORƔ)-DEPENDENT CANCERS” (The Regents of the University of California, priority 2019, published 2022).

The test system of one assay is K562 cells. Briefly: k562 colony assay in methylcellulose. The class given is cell-based, human. An excerpt: K562 is an aggressive human leukemia cell line generated from blast crisis chronic myeloid leukemia. […] Cells were allowed to grow over the course of 8 days before the numbers of formed colonies were counted. This was used to understand the functionality of k562 cells under different conditions. Cells treated with AZD-0284 formed fewer colonies and their morphology was smaller in comparison to the vehicle-treated cells.

For assay [1], the system named is primary patient-derived PDX202 pancreatic cancer cells. Briefly: PDX202 organoid assay. The class given is cell-based, human. The settings on record: 3 μM JTE-151 alone. The protocol: Moreover, the anti-cancer effect of JTE-151 was determined in an organoid assay using pancreatic cancer cells derived from mice bearing primary patient-derived xenografts.
The next assay has as its system PDX1356 xenografts. Kind of assay: PDX1356 xenografts in mice. The class given is in vivo, human. An excerpt: Finally, the impact of JTE-151 was examined in vivo on mice bearing primary patient-derived pancreatic cancer xenografts (FIGS. 70-78). […] FIGS. 70-72 show 3 rounds of treatment in an experiment using mice bearing PDX1356 xenographs. The horizontal axis of the first panel in each of FIGS. 70-72 represents days of treatment, and the vertical axis represents tumor volume. The horizontal axis of each of the remaining panels represents the target (vehicle vs. JTE-151 mouse), and the vertical axis represents the specified measurement. JTE-151 was given at the regimen as specified in the figures. For example, in the first round (FIG. 70), JTE-151 was given at 90 mg/kg body weight once per day for the first 25 days, then twice per day from day 26 though day 40.
A general note: A xenograft is tissue or cells of one species grown in another, often human tumour cells in immunodeficient mice.

Assay [2] concerns human pancreatic cancer Fast Growing (FG) cells. Briefly: FG organoid assay. The class given is cell-based. Here is the method: Similarly, the effects of JTE-151 at different doses were examined on human pancreatic cancer Fast Growing (FG) cells using the organoid assay (FIG. 69). Three doses of JTE-151 were tested: 0.3 μM, 1 μM, and 3 μM.
Assay [3] relates to non-germline KRAS/p53 organoids. Briefly: non-germline KRAS/p53 organoid assay. The class given is cell-based, mouse. The settings on record: 3 μM, 6 μM, 9 μM JTE-151; 4 days. Here is the method:
First, pharmacologic blockade of RORγ using JTE-151 was tested on pancreatic cell organoids as described above. Pancreatic cancer cells derived from two genetically engineered mouse models (GEMMS) were used for the organoid studies (FIGS. 47, 48). […] Then, electroporation was used to promote incorporation of the DNA into the pancreatic cells.
About 4,000 organoids from each of the non-germline and germline mouse models were plated as single cells in multi-well plates, as described above, and treated with JTE-151 for 4 days (FIG. 48). Organoid number and size were analyzed after treatment. […] In the quantification, different doses of JTE-151 were plotted along the horizontal axis, and the volume of organoids was expressed as relative to control along the vertical axis. […] Organoid volume was then analyzed. Different doses of JTE-151 were plotted along the horizontal axis, and the vertical axis represents relative organoid volume to control.

Assay [4] deals with organoids derived from acinar tumors. Kind of assay: acinar tumor organoids (Msi2-Cre^ER/LSL-Myc). The class given is cell-based, mouse. The source says: (§1) A new Msi2-Cre^ER mouse model of aggressive pancreatic cancer was created, in which Cre is driven off of the Msi2 promoter and can be conditionally triggered by tamoxifen delivery. This Msi2-Cre^ER driver can be crossed into mice bearing distinct mutations such as Ras (leading to myeloproliferative neoplasia), p53, or Myc. When the Msi2-Cre^ER driver was crossed into an LSL-MyC^T58A model developed by Dr. Robert Wechsler-Reya at SBP/Rady, La Jolla, Calif. (Mollaoglu et al., 2017) (FIG. 79), it produced multiple cancer types including small cell lung cancer, choroid plexus tumors, and early stage kidney tumors.

Assay [5] concerns primary patient derived xenografts. Briefly: primary patient derived xenografts, SR2211. The settings on record: human. Here is the method:
Subcutaneous tumor dimensions were measured with calipers 1-2× weekly.

Another assay deals with Hmga2. Kind of assay: target engagement by Hmga2 immunofluorescence in KP^f/fC tumors. The class given is in vivo, mouse. Conditions: mid-point of the treatment regimen. The protocol:
FIGS. 20A-20D show target engagement following RORγ inhibition in vivo, related to FIGS. 5A-5X. FIGS. 20A and 20B: Tumor-bearing KP^f/fC mice 9.5 weeks of age were treated with vehicle or SR2211 for two weeks (midpoint), after which tumors were isolated, fixed, and analyzed for target engagement of Hmga2 in epithelial cells by immunofluorescence. Quantification of Hmga2-positive epithelial cells in vehicle or SR2211 treated tumors (FIG. 20A) representative images (FIG. 20B). FIGS. 20C and 20D: Tumor-bearing KP^f/fC mice were treated from 8 weeks of age to endpoint with either vehicle or SR2211. Quantification of Hmga2-positive epithelial cells in vehicle or SR2211 treated tumors (FIG. 20C), representative images (FIG. 20D). Four frames were analyzed per mouse, n=2-4 mice per condition, Hmga2 (red), Keratin (green). Data represented as mean+/−S.E.M. *p<0.05, **p<0.01, ***p<0.001 by Student's t-test or One-way ANOVA. Grubb's test (p=0.1), was used to remove an outlier from the midpoint SR2211 treated group.
Pancreatic cancer tissue from KP^f/fC mice was fixed in Z-fix (Anatech Ltd, Fisher Scientific) and paraffin embedded at the UCSD Histology and Immunohistochemistry Core at The Sanford Consortium for Regenerative Medicine according to standard protocols. 5 μm sections were obtained and deparaffinized in xylene. […]

Assay [6] deals with organoids derived from adenosquamous tumors. Briefly: adenosquamous tumor organoids (Msi2-Cre^ER/LSL-Myc). The class given is cell-based, mouse.
Excerpt: as §1

Another assay relates to KP^f/fC tumors. Conditions: chimeric wild type versus RORγ recipient mice.
Setting [7] is: first round: JTE-151 90 mg/kg once per day for 25 days, then twice per day to day 40.
Setting [8] is: third round: JTE-151 90 mg/kg once per day.

Entries after “also recorded” stand apart in the source; their conditions may differ.

`CC(=O)N1Cc2cc(S(C)(=O)=O)ccc2[C@@H]1C(=O)Nc1ccc(C(O)(C(F)(F)F)C(F)(F)F)cc1` [AZD-0284]: the “number of colonies formed” value in the assay on K562 cells (1 μM, 3 μM, 5 μM, 10 μM, and 15 μM AZD-0284, 8 days) is recorded as “significant reduction”. For the same compound, in the assay on K562 cells (in comparison to the vehicle-treated cells), the colony morphology result is “smaller”.
Regarding `Cc1ccc(NC(=O)C[C@H](CCC(=O)O)c2noc([C@H]3C[C@@H](CC(C)(C)C)C3)c2C2CC2)c(Cl)c1` [JTE-151, (4S)-6-[(2-chloro-4-methylphenyl)amino]-4-{4-cyclopropyl-5-[cis-3-(2,2-dimethylpropyl)cyclobutyl]isoxazol-3-yl}-6-oxohexanoic acid], the organoid growth entry was “inhibited” in [1]; “visibly and significantly impaired; also recorded: inhibited” in assay [3]. Further, the tumor growth rate result in the assay on PDX1356 xenografts (3 experiments, slope compared to control (FIG. 73)) was “generally slower”. Further, the “EpCam+ tumor epithelial cells” value in the assay with PDX1356 xenografts (setting [7]) is reported as “lower”; in the assay with PDX1356 xenografts (setting [8]), “reduced”. For the same compound, the “EpCam+/CD133+ tumor stem cells” value was “lower” in the assay with PDX1356 xenografts (setting [7]) and “reduced” in the assay on PDX1356 xenografts (setting [8]). The cell count result in the assay with PDX1356 xenografts (setting [7]) is “decreased”. The tumor growth result in the assay with PDX1356 xenografts (setting [7]) is recorded as “reduced”. Moreover, the FG organoid growth result is given as “significant inhibition” in assay [2] (JTE-151 (0.3 μM, 1 μM, 3 μM) in combination with 0.05 nM gemcitabine); “significant inhibition” in assay [2] (JTE-151 alone at 0.3 μM, 1 μM, and 3 μM).
Turning to `OC(c1ccc(-c2ccc(CN3CCN(Cc4ccncc4)CC3)cc2)c(F)c1)(C(F)(F)F)C(F)(F)F` [SR2211], in [4] (3 μM or 6 μM SR2211), the organoid growth entry is “significantly reduced”. The sensitivity of organoids result in assay [4] (acinar tumors) and in [6] was “sensitive” in each case. Moreover, the “tumor growth in vivo” value in assay [5] is listed as “marked reduction”. In the assay with Hmga2, the “Hmga2 in pancreatic epithelial cells” value was “downregulated”. Moreover, the “impact on tumor growth, cellularity, and stem cell content” value in the assay on KP^f/fC tumors was “equivalent”.
